Measurements from ChEMBL document CHEMBL4145521, “Regioselective synthesis of 3,4-diaryl-5-unsubstituted isoxazoles, analogues of natural cytostatic combretastatin A4” (Eur J Med Chem, 2018).

Columns and labels:
Assay type in all cases: functional
HOP-62 [1] = experiment: Cytotoxicity against human HOP62 cells assessed as cell growth at 0.01 uM incubated for 48 hrs by sulforhodamine B assay relative to control; conditions: HOP-62, 48 h, read-out: Activity
MDA-MB-468 = experiment: Cytotoxicity against human MDA-MB-468 cells assessed as cell growth at 0.01 uM incubated for 48 hrs by sulforhodamine B assay relative to control; conditions: MDA-MB-468, 48 h, read-out: Activity
UO-31 [2] = experiment: Cytotoxicity against human UO31 cells assessed as cell growth at 0.1 uM incubated for 48 hrs by sulforhodamine B assay relative to control; conditions: UO-31, 48 h, read-out: Activity
SF-539 = experiment: Cytotoxicity against human SF539 cells assessed as cell growth at 1 uM incubated for 48 hrs by sulforhodamine B assay relative to control; conditions: SF-539, 48 h, read-out: Activity
SNB-75 = experiment: Cytotoxicity against human SNB75 cells assessed as cell growth at 1 uM incubated for 48 hrs by sulforhodamine B assay relative to control; conditions: SNB-75, 48 h, read-out: Activity
SK-MEL-2 = experiment: Cytotoxicity against human SK-MEL-2 cells assessed as cell growth at 10 uM incubated for 48 hrs by sulforhodamine B assay relative to control; conditions: SK-MEL-2, 48 h, read-out: Activity
Hs-578T [3] = experiment: Cytotoxicity against human Hs 578T cells assessed as cell growth at 10 uM incubated for 48 hrs by sulforhodamine B assay relative to control; conditions: read-out: Activity
HOP-62 [4] = experiment: Cytotoxicity against human HOP62 cells assessed as cell growth at 100 uM incubated for 48 hrs by sulforhodamine B assay relative to control; conditions: HOP-62, 48 h, read-out: Activity
NCI-H226 = experiment: Cytotoxicity against human NCI-H226 cells assessed as cell growth at 100 uM incubated for 48 hrs by sulforhodamine B assay relative to control; conditions: NCI-H226, 48 h, read-out: Activity
KM12 = experiment: Cytotoxicity against human KM12 cells assessed as cell growth at 100 uM incubated for 48 hrs by sulforhodamine B assay relative to control; conditions: KM12, 48 h, read-out: Activity
SW-620 = experiment: Cytotoxicity against human SW620 cells assessed as cell growth at 100 uM incubated for 48 hrs by sulforhodamine B assay relative to control; conditions: SW-620, 48 h, read-out: Activity
SK-MEL-28 = experiment: Cytotoxicity against human SK-MEL-28 cells assessed as cell growth at 100 uM incubated for 48 hrs by sulforhodamine B assay relative to control; conditions: SK-MEL-28, 48 h, read-out: Activity
A498 = experiment: Cytotoxicity against human A498 cells assessed as cell growth at 100 uM incubated for 48 hrs by sulforhodamine B assay relative to control; conditions: A498, 48 h, read-out: Activity
UO-31 [5] = experiment: Cytotoxicity against human UO31 cells assessed as cell growth at 100 uM incubated for 48 hrs by sulforhodamine B assay relative to control; conditions: UO-31, 48 h, read-out: Activity
OVCAR-8 = experiment: Cytotoxicity against human OVCAR8 cells incubated for 48 hrs by sulforhodamine B assay; conditions: OVCAR-8, 48 h
Hs-578T [6] = experiment: Cytotoxicity against human Hs 578T cells incubated for 48 hrs by sulforhodamine B assay
[7] = read-out: LC50 (the source's name)
[8] = read-out: pLC50 (the source's name) (converted)

Structure (SMILES): COc1ccc(-c2nocc2-c2cc(OC)c(OC)c(OC)c2)cc1
- growth at 0.01 µM (HOP-62 [1]): 85%
- growth at 0.01 µM (MDA-MB-468): 94%
- growth at 0.1 µM (UO-31 [2]): 70%
- growth at 1 µM (SF-539): 1%
- growth at 1 µM (SNB-75): 4%
- growth at 10 µM (SK-MEL-2): 43%
- growth at 10 µM (Hs-578T [3]): 28%
- growth at 100 µM (HOP-62 [4]): 10%
- growth at 100 µM (NCI-H226): -20%
- growth at 100 µM (KM12): -45%
- growth at 100 µM (SW-620): 7%
- growth at 100 µM (SK-MEL-28): -5%
- growth at 100 µM (A498): -33%
- growth at 100 µM (UO-31 [5]): -27%
- GI50 (OVCAR-8; read-out: GI50): 0.327 µM
- CC50 (OVCAR-8; [7]): > 100 µM
- TGI (OVCAR-8; read-out: TGI): > 100 µM
- GI50 (OVCAR-8; read-out: pGI50 (converted)): 0.324 µM
- CC50 (OVCAR-8; [8]): > 100 µM
- TGI (OVCAR-8; read-out: pTGI): > 100 µM
- GI50 (Hs-578T [6]; read-out: GI50): 0.396 µM
- CC50 (Hs-578T [6]; [7]): > 100 µM
- TGI (Hs-578T [6]; read-out: TGI): > 100 µM
- GI50 (Hs-578T [6]; read-out: pGI50 (converted)): 0.398 µM
- CC50 (Hs-578T [6]; [8]): > 100 µM
- TGI (Hs-578T [6]; read-out: pTGI): > 100 µM
